Experimental data from patent publication US20030225272A1, “Novel mmp-2/mmp-9 inhibitors” (priority 2003, published 2003).

Assays:
[1] = biological target: T1, purified recombinant human MMP-9 (Homo sapiens, UniProt P14780); assay: MMP-9 quenched fluorescence screening assay; type: biochemical; conditions: 96-well quenched fluorescence assay, fluorogenic peptide substrate, 30 minutes at 37 C
T1 construct: made in house
Protocol: (§1) A high-throughput, 96-well screen was used to measure MMP-9 activity and to detect potential inhibitors of MMP-9. The screen is a quenched fluorescence assay. The components of the assay include purified recombinant human MMP-9 (generated by. SB, 3 nM final concentration) and a fluorogenic peptide substrate (Peptides International, Louisville, Ky., 10 (M final concentration) incubated in the presence or absence of compound. Briefly, enzyme activity is measured after 30 minutes incubation at 37(C. and quantitated using a peptide substrate, (Dnp-Pro-Cha-Gly-Cys(Me)-His-Ala-Lys(NMa)-NH2 or (2,4-Dinitrophenyl-L-Prolyl-L-Cyclohexylalanyl-Glycyl(-Methyl-L-Cysteinyl-L-Histidyl-L-Alanyl-N(-Methylenthranoyl-L-Lysine Amide) containing a fluorophore, Nma, on one end of the peptide and a quencher, Dnp, on the other end. When the peptide is intact, the fluorophore is quenched. When the peptide is cleaved by MMP-9, the quencher is dissociated from the fluorophore and a fluorescent signal is emitted that can easily be detected using a fluorescent plate reader. The universal cleavage site within the peptide that is recognized by MMP-1, -2, -3, -9 and -13 is the Gly-Cys bond.
(§2) A 96-well quenched fluorescence assay was used to measure MMP-9 and MMP-2 activity and to detect potential inhibitors of MMP-9 and MMP-2. […] For these additional screens, an IC50 value was determined. […]

[2] = biological target: T2, purified recombinant human MMP-2 (Homo sapiens, UniProt P08253); assay: MMP-2 quenched fluorescence screening assay; type: biochemical; conditions: 96-well quenched fluorescence assay, same fluorogenic peptide substrate
T2 construct: made in house
T2 sequence (P08253 110-660): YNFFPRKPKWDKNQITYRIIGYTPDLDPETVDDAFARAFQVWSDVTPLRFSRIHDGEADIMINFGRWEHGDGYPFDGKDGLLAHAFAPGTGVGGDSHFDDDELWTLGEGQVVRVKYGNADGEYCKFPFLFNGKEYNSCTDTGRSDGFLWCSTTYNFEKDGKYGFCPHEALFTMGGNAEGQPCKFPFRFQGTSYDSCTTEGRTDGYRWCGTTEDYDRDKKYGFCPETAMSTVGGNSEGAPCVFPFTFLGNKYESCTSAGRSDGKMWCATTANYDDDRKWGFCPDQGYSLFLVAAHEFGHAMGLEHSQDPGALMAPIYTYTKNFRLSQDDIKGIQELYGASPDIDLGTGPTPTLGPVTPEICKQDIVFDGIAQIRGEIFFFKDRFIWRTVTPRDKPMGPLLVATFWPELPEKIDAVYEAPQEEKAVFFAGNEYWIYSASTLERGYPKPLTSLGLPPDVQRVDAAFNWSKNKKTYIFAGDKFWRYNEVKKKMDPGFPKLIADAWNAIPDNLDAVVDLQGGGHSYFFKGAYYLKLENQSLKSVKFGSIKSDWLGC
Protocol: as §1, §2

T1 sequence (P14780 94-707): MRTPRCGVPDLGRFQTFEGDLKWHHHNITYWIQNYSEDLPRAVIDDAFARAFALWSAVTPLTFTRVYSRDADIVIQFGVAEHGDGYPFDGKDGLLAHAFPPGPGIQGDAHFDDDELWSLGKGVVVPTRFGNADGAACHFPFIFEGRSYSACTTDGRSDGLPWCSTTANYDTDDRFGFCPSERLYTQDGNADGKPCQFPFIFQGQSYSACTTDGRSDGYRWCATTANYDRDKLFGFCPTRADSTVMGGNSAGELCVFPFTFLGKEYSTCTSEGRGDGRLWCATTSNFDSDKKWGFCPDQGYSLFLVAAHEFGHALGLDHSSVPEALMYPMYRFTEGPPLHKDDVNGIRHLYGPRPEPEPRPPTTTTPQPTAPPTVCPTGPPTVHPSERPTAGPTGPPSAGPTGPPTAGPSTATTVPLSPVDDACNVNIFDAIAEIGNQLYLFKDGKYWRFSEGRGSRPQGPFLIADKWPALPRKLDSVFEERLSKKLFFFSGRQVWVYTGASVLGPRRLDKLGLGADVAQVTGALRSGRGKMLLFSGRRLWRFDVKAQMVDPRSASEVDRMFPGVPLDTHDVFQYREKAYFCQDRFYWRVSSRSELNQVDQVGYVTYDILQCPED

CCCCCCCCC[C@H](CC(=O)O)C(=O)N[C@@H](C(=O)NC)c1ccccc1 [Example 1, N-[2(R)-Nonylsuccinic acid]-L-phenylglycine-N-methylamide]
MMP-9 inhibition (screening result in words) [1]: identified as a dual MMP-2/MMP-9 inhibitor
MMP-2 inhibition (screening result in words) [2]: identified as a dual MMP-2/MMP-9 inhibitor
